Source: patent publication US20250230193A1, “CYCLIC COMPOUND HAVING SELECTIVE KRAS INHIBITORY EFFECT ON HRAS AND NRAS” (CHUGAI SEIYAKU KABUSHIKI KAISHA, priority 2022, published 2025)
Where a SMILES comes first, the peptide text is derived from it. Bridges are numbered along the chain shown (N, C = ends). [ ]: non-standard residue; d: D form. The star is where a group is joined. hPhe(3-Cl-4-CF3) = N[C@@H](CCc1ccc(C(F)(F)F)c(Cl)c1)C(=O)O; NPrPhe(4-CF3) = CCCN[C@@H](Cc1ccc(C(F)(F)F)cc1)C(=O)O; NMeGly(cPent) = CN[C@H](C(=O)O)C1CCCC1; Gly(cPent) = N[C@H](C(=O)O)C1CCCC1; NMeD = CN[C@@H](CC(=O)O)C(=O)O; NMeL = CN[C@@H](CC(C)C)C(=O)O; Morpholide = C1CN(*)CCO1; Ac5c = NC1(C(=O)O)CCCC1; NEtG = CCNCC(=O)O; Sar = CNCC(=O)O

Assays:
[1] = biological target: GDP-bound NRAS wild-type protein (Homo sapiens, UniProt P01111); experiment: Binding to NRAS by surface plasmon resonance (SPR), Single Cycle Kinetics; details: for NRAS/KRAS (ratio of KD value with respect to NRAS to KD value with respect to KRAS) / NRAS/KRAS (ratio of KD value for NRAS to KD value for KRAS): GDP-bound NRAS wild-type vs GDP-bound KRAS wild-type
[2] = biological target: GDP-bound HRAS wild-type protein (Homo sapiens, UniProt P01112); experiment: Binding to HRAS by surface plasmon resonance (SPR), Single Cycle Kinetics; details: for HRAS/KRAS (ratio of KD value with respect to HRAS to KD value with respect to KRAS) / HRAS/KRAS (ratio of KD value for HRAS to KD value for KRAS): GDP-bound HRAS wild-type vs GDP-bound KRAS wild-type
GDP-bound HRAS wild-type protein, sequence (P01112 whole entry): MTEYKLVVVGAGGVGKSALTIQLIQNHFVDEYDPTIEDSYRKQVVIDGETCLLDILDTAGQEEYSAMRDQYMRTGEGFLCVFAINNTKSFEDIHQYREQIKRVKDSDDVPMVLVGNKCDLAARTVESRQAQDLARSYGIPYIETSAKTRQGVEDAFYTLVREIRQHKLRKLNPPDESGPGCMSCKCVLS

GDP-bound NRAS wild-type protein, sequence (P01111 whole entry): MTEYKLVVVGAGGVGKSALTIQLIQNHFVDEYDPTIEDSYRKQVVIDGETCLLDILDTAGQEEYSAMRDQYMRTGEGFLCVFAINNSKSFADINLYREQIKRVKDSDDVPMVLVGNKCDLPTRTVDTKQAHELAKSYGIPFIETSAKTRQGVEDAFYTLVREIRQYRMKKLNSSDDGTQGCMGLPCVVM

## CC[C@H](C)[C@@H]1NC(=O)[C@H](CC)N(C)C(=O)C[C@@H](C(=O)N(C)C)N(C)C(=O)[C@H](C2CCCC2)N(C)C(=O)C2(CCC2)NC(=O)[C@@H]2C[C@@H](C(F)(F)F)CN2C(=O)[C@H](CCc2cc(F)c(C(F)(F)F)c(F)c2)NC(=O)CN(C)C(=O)[C@H](Cc2ccc(C(F)(F)F)cc2)N2CC/C=C\C[C@@H](C2=O)N(C)C(=O)CN(C)C1=O [PP1133]
[1]; KD ratio, SPR
  NRAS/KRAS (ratio of KD value with respect to NRAS to KD value with respect to KRAS): A (a compound having 10 or more and less than 20 is denoted as A)
[2]; KD ratio, SPR
  HRAS/KRAS (ratio of KD value with respect to HRAS to KD value with respect to KRAS): A (a compound having 10 or more and less than 20 is denoted as A)

## CCC[C@H]1C(=O)N[C@@H](CC(C)C)C(=O)N(CC)CC(=O)N(C)[C@H]2C/C=C\CCN(C2=O)[C@@H](Cc2ccc(C)cc2)C(=O)N(C)CC(=O)N[C@@H](CCc2ccc(C(F)(F)F)c(Cl)c2)C(=O)N2C[C@H](OCC)C[C@H]2C(=O)NC2(CCC2)C(=O)N(C)[C@@H](C2CCCC2)C(=O)N(C)[C@H](C(=O)N(C)C)CC(=O)N1C [PP2545]
[1]; KD ratio NRAS/KRAS, class symbols
  NRAS/KRAS (ratio of KD value with respect to GDP-bound NRAS wild-type protein to KD value with respect to KRAS): A (a compound having 10 or more and less than 20 is denoted as A)
[2]; KD ratio HRAS/KRAS, class symbols
  HRAS/KRAS (ratio of KD value with respect to GDP-bound HRAS wild-type protein to KD value with respect to KRAS): A (a compound having 10 or more and less than 20 is denoted as A)

## CCCN(C)C(=O)[C@@H]1CC(=O)N(C)[C@@H](CCOC)C(=O)N[C@@H]([C@@H](C)CC)C(=O)N(C)CC(=O)N(C)[C@H]2C/C=C\CCN(C2=O)[C@@H](Cc2ccc(C(F)(F)F)cc2)C(=O)N(C)CC(=O)N[C@@H](CCc2ccc(C(F)(F)F)c(OC)c2)C(=O)N2C[C@H](OCC)C[C@H]2C(=O)NC2(CC(C)(C)C2)C(=O)N(C)[C@@H](C2CCCC2)C(=O)N1C [PP1975]
[1]; KD ratio, SPR
  NRAS/KRAS (ratio of KD value for NRAS to KD value for KRAS): A (a compound having 10 or more and less than 20 is denoted as A)
[2]; KD ratio, SPR
  HRAS/KRAS (ratio of KD value for HRAS to KD value for KRAS): A (a compound having 10 or more and less than 20 is denoted as A)

## CCOC[C@H]1C(=O)N[C@@H]([C@@H](C)CC)C(=O)N(C)CC(=O)N(C)[C@H]2C/C=C\CCN(C2=O)[C@@H](CC2CCCCC2)C(=O)N(C)CC(=O)N[C@@H](CCc2ccc(C(F)(F)F)c(OC)c2)C(=O)N2C[C@@H](C)C[C@H]2C(=O)N(C)C2(CCC2)C(=O)N(C)[C@@H](C2CCCC2)C(=O)N(C)[C@H](C(=O)N(C)C)CC(=O)N1C [PP2371]
[1]; SPR
  NRAS/KRAS (ratio of KD value with respect to NRAS to KD value with respect to KRAS): A (a compound having 10 or more and less than 20 is denoted as A)
[2]; SPR
  HRAS/KRAS (ratio of KD value with respect to HRAS to KD value with respect to KRAS): B (a compound having 3 or more and less than 10 is denoted as B)

## CC[C@H](C)[C@@H]1NC(=O)[C@H](C)N(C)C(=O)C[C@@H](C(=O)N(C)C)N(C)C(=O)[C@H](C2CCCC2)N(C)C(=O)C2(CC(C)(C)C2)NC(=O)[C@@H]2CC(F)(F)CN2C(=O)[C@H](CCc2cc(F)c(C(F)(F)F)c(F)c2)NC(=O)CN(C)C(=O)[C@H](Cc2ccc(C(F)(F)F)cc2)N2CC/C=C\C[C@@H](C2=O)N(C)C(=O)CN(C)C1=O [PP1707]
[1]; KD ratio, SPR
  NRAS/KRAS (ratio of KD value for NRAS to KD value for KRAS): AA (a compound having 20 or more is denoted as AA)
[2]; KD ratio, SPR
  HRAS/KRAS (ratio of KD value for HRAS to KD value for KRAS): A (a compound having 10 or more and less than 20 is denoted as A)

## CCCN1C(=O)CN(C)C(=O)CN(CC)C(=O)[C@H](C2CCCC2)NC(=O)[C@H](CC(C)C)N(C)C(=O)C[C@@H](C(=O)N2CCOCC2)N(C)C(=O)[C@H](C2CCCC2)N(C)C(=O)C2(CCCC2)NC(=O)[C@@H]2CCCN2C(=O)[C@H](CCc2ccc(C(F)(F)F)c(Cl)c2)NC(=O)CN(C)C(=O)[C@@H]1Cc1ccc(C(F)(F)F)cc1 [PP0293] ([NMeL][Gly(cPent)][NEtG][Sar][NPrPhe(4-CF3)][Sar][hPhe(3-Cl-4-CF3)]P[Ac5c][NMeGly(cPent)][NMeD]-Morpholide; lactam N-11)
[1]; KD ratio NRAS/KRAS, SPR
  NRAS/KRAS (ratio of KD for GDP-bound NRAS wild-type to KD for KRAS): B (a compound having 3 or more and less than 10 is denoted as B)
[2]; KD ratio HRAS/KRAS, SPR
  HRAS/KRAS (ratio of KD for GDP-bound HRAS wild-type to KD for KRAS): C (A compound having a KD ratio of 0.1 or more and less than 3 is denoted as C)

## CCO[C@@H]1C[C@H]2C(=O)NC3(CCC3)C(=O)N(C)[C@@H](C3CCCC3)C(=O)N(C)[C@H](C(=O)N3CCOCC3)CC(=O)N(C)[C@@H](Cc3ccccc3C#N)C(=O)N[C@@H]([C@@H](C)CC)C(=O)N(C)CC(=O)N(C)[C@H]3CCCCCN(C3=O)[C@@H](Cc3ccc(C(F)(F)F)cc3)C(=O)N(C)CC(=O)N[C@@H](CCc3cc(F)c(C(F)(F)F)c(F)c3)C(=O)N2C1 [PP1165]
[1]; KD ratio, SPR
  NRAS/KRAS (ratio of KD value with respect to NRAS to KD value with respect to KRAS): A (a compound having 10 or more and less than 20 is denoted as A)
[2]; KD ratio, SPR
  HRAS/KRAS (ratio of KD value with respect to HRAS to KD value with respect to KRAS): B (a compound having 3 or more and less than 10 is denoted as B)
